Laboratory results reported in patent US20250171438A1 (Agios Pharmaceuticals, Inc., priority 2022, published 2025).

Biological target: T1, human PAH with the R408W mutation (Homo sapiens, UniProt P00439, R408W)
T1 construct: expressed in transfected cells
T1 sequence (P00439 1-452 R408W): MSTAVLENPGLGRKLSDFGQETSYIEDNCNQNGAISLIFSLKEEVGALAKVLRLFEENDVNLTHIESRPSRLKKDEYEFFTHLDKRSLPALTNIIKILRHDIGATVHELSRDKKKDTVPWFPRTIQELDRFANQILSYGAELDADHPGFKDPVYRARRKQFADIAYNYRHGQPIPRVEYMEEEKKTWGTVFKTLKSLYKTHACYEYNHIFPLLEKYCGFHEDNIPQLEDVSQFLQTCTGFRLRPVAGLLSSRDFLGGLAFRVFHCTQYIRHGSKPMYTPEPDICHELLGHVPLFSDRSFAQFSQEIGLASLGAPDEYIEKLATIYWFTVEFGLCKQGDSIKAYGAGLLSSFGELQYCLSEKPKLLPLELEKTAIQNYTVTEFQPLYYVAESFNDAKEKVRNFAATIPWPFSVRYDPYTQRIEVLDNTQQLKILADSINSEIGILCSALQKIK
Assay: Cell Based Phenylalanine Flux Assay
Details: A375 cells expressing human R408W PAH; 24 hrs with compound; 13C-Tyrosine by LC-MS; average where tested multiple times; read-out: AC50

| AC50 [µM] | SMILES |
| --- | --- |
| 1 to 5 | Cc1nc(C(=O)N2CCc3[nH]cnc3C2c2nc3ccccc3s2)n(C)n1 (stereo not shown) |
| 1 to 5 | Cc1nc(C(=O)N2CCc3[nH]cnc3C2c2nc3c(F)cccc3s2)n(C)n1 (stereo not shown) |
| 1 to 5 | O=C(c1oc(C2CCN2)nc1C(F)F)N1CCc2[nH]cnc2C1c1nc2c(F)cccc2s1 (stereo not shown) |
| > 5 | Cc1nc(C2CCN2)oc1C(=O)N1CCc2[nH]cnc2C1c1nc2c(F)cccc2s1 (stereo not shown) |
| 1 to 5 | Cn1ncc(C(=O)N2CCc3[nH]cnc3C2c2nc3ccccc3s2)n1 (stereo not shown) |
| 1 to 5 | Cn1nnc(C(=O)N2CCc3[nH]cnc3C2c2nc3ccccc3s2)n1 (stereo not shown) |
| 1 to 5 | Cn1nc(C(F)F)nc1C(=O)N1CCc2[nH]cnc2C1c1nc2c(F)cccc2s1 (stereo not shown) |
| 1 to 5 | O=C(c1cc(C(F)F)n[nH]1)N1CCc2[nH]cnc2C1c1nc2c(F)cccc2s1 (stereo not shown) |
| 1 to 5 | Cn1nc(Br)nc1C(=O)N1CCc2[nH]cnc2C1c1nc2c(F)cccc2s1 (stereo not shown) |
| 1 to 5 | Cn1nc(C2CC2)nc1C(=O)N1CCc2[nH]cnc2C1c1nc2ccccc2s1 (stereo not shown) |
| 1 to 5 | Cn1nc(C2CC2)nc1C(=O)N1CCc2[nH]cnc2C1c1nc2c(F)cccc2s1 (stereo not shown) |
| 1 to 5 | Cn1nc(C(C)(C)O)nc1C(=O)N1CCc2[nH]cnc2C1c1nc2ccccc2s1 (stereo not shown) |
| 1 to 5 | Cn1nc(CC#N)nc1C(=O)N1CCc2[nH]cnc2C1c1nc2c(F)cccc2s1 (stereo not shown) |
| 1 to 5 | CC(C)(O)c1noc(C(=O)N2CCc3[nH]cnc3C2c2nc3c(F)cccc3s2)n1 (stereo not shown) |
| 1 to 5 | CC(C)(O)c1cc(C(=O)N2CCc3[nH]cnc3C2c2nc3c(F)cccc3s2)sn1 (stereo not shown) |
| > 5 | Cn1nc(C(C)(C)O)nc1C(=O)N1CCc2[nH]cnc2C1c1nc2c(F)cccc2s1 (stereo not shown) |
| 1 to 5 | CC(C)(O)c1nsc(C(=O)N2CCc3[nH]cnc3C2c2nc3c(F)cccc3s2)n1 (stereo not shown) |
| 1 to 5 | Cn1nc(C(C)(C)O)cc1C(=O)N1CCc2[nH]cnc2C1c1nc2c(F)cccc2s1 (stereo not shown) |
| 1 to 5 | CC(C)(O)c1cc(C(=O)N2CCc3[nH]cnc3C2c2nc3c(F)cccc3s2)[nH]n1 (stereo not shown) |
| 1 to 5 | Cc1nnc(C(=O)N2CCc3[nH]cnc3C2c2nc3c(F)cccc3s2)n1C (stereo not shown) |
| > 5 | O=C(c1nnc(C2CNC2)o1)N1CCc2[nH]cnc2C1c1nc2ccccc2s1 (stereo not shown) |
| 1 to 5 | Cn1ncc(C(=O)N2CCc3[nH]cnc3C2c2nc3c(C(F)(F)F)cccc3s2)c1C(F)F (stereo not shown) |
| 1 to 5 | Cn1ncc(C(=O)N2CCc3[nH]cnc3C2c2nc3c(F)cccc3s2)c1Br (stereo not shown) |

| AC50 [µM] | SMILES |
| --- | --- |
| 1 to 5 | Cn1ncc(C(=O)N2CCc3[nH]cnc3C2c2nc3c(C(F)(F)F)cccc3s2)c1Cl (stereo not shown) |
| 1 to 5 | Cc1cccc2sc(C3c4nc[nH]c4CCN3C(=O)c3cnn(C)c3Cl)nc12 (stereo not shown) |
| 1 to 5 | NC(=O)Cn1ncc(C(=O)N2CCc3[nH]cnc3C2c2nc3c(F)cccc3s2)c1C(F)F (stereo not shown) |
| 1 to 5 | O=C(c1cnn(CCO)c1Cl)N1CCc2[nH]cnc2C1c1nc2c(F)cccc2s1 (stereo not shown) |
| > 5 | CNC(=O)N1CC(C(=O)N2CCc3[nH]cnc3C2c2nc3ccccc3s2)C1 (stereo not shown) |
| 1 to 5 | O=C(C1CN(CC(F)(F)F)C1)N1CCc2[nH]cnc2C1c1nc2c(F)cccc2s1 (stereo not shown) |
| > 5 | Cn1cnc(C(=O)N2CCc3[nH]cnc3C2c2nc3c(F)cccc3s2)n1 (stereo not shown) |
| 1 to 5 | Cn1ccc(C(=O)N2CCc3[nH]cnc3C2c2nc3c(F)cccc3s2)n1 (stereo not shown) |
| 1 to 5 | Cn1nc(COC(F)(F)F)cc1C(=O)N1CCc2[nH]cnc2C1c1nc2c(F)cccc2s1 (stereo not shown) |
| 1 to 5 | Cn1ncc(C(=O)N2CCc3[nH]cnc3C2c2nc3c(F)cccc3s2)c1C(F)(F)F (stereo not shown) |
| 1 to 5 | O=C(c1cn[nH]c1)N1CCc2nc[nH]c2C1c1nc2c(F)cccc2s1 (stereo not shown) |
| 1 to 5 | O=C(c1ccn[nH]1)N1CCc2[nH]cnc2C1c1nc2c(F)cccc2s1 (stereo not shown) |
| 1 to 5 | Cc1nc(C(C)(C)S(C)(=O)=O)oc1C(=O)N1CCc2[nH]cnc2C1c1nc2c(F)cccc2s1 (stereo not shown) |
| 1 to 5 | Cn1ncc(C(=O)N2CCc3[nH]cnc3C2c2nc3c(F)cccc3s2)n1 (stereo not shown) |
| 1 to 5 | Cn1nnc(C(=O)N2CCc3[nH]cnc3C2c2nc3c(F)cccc3s2)n1 (stereo not shown) |
| 1 to 5 | [2H]C([2H])([2H])OCc1cc(C(=O)N2CCc3[nH]cnc3C2c2nc3c(F)cccc3s2)n(C)n1 (stereo not shown) |
| 1 to 5 | COCc1cc(C(=O)N2CCc3[nH]cnc3C2c2nc3c(F)cccc3s2)[nH]n1 (stereo not shown) |
| 1 to 5 | Cc1nc(N2CCN(C)CC2)oc1C(=O)N1CCc2[nH]cnc2C1c1nc2c(F)cccc2s1 (stereo not shown) |
| 1 to 5 | Cc1nc(N2CCOCC2)oc1C(=O)N1CCc2[nH]cnc2C1c1nc2c(F)cccc2s1 (stereo not shown) |
| 1 to 5 | Cn1nc(N)cc1C(=O)N1CCc2[nH]cnc2C1c1nc2ccccc2s1 (stereo not shown) |
| 1 to 5 | Cn1nc(C(N)=O)cc1C(=O)N1CCc2[nH]cnc2C1c1nc2c(F)cccc2s1 (stereo not shown) |
| 1 to 5 | CNC(C)(C)c1nc(C)c(C(=O)N2CCc3[nH]cnc3C2c2nc3c(F)cccc3s2)o1 (stereo not shown) |
| > 5 | O=C(c1cc(CO)n[nH]1)N1CCc2[nH]cnc2C1c1nc2c(F)cccc2s1 (stereo not shown) |
